Measured values taken from patent EP0054974A1, “Imidazolylpropanol compounds and their acid addition salts, and production and use thereof” (SUMITOMO CHEMICAL COMPANY, LIMITED, priority 1980, dated 1982).
Values after ≈ are worked out from the molar mass of the structure shown.

How the values were obtained:
[1] = system: Candida albicans MTU12001; assay: Antifungal activity in vitro, minimum inhibitory concentration on Sabouraud's agar medium; assay type: cell-based
Text: (§1) The antifungal activity of some representatives of the imidazolylpropanol compounds (I) in in vitro test is as shown below.

Candida albicans Ohta = assay: as above; assay type: cell-based
Text: as §1

Trichophyton rubrum = assay: as above; assay type: cell-based
Text: as §1

Candida albicans KB-8 = assay: Antifungal activity in vivo (decrease of cells in the kidney of Candida-infected mice); details: for log reduction at 20 mg/kg: number of cells in kidney, 24 hours after infection; for Medicated group, number of cells in kidney: male DDY mice infected i.v. with Candida albicans KB-8, kidneys 24 hours after infection
Method: The in vivo test of the antifungal activity with the said representative ones of the imidazolylpropanol compounds (I) was carried out in the following manner:
Candida albicans KB-8 cultured on the Sabroud's. agar plate admixed with blood in a concentration of 5 % by weight at 30°C for 4 days was suspended in physiologically saline solution to make a number of cells of 10^7/ml. The suspension was intravenously injected through the tail vein into 5 week old male DDY mice at a dose of 0.2 ml per mouse. […]
After 24 hours from the infection, the animals were killed and the kidneys were taken out. Each kidney was admixed with sea sand and smashed. After diluting with physiologically saline solution to give 5 times in volume, the dilution was centrifuged at 900 rpm for 5 minutes. A certain amount of the supernatant was scattered on a Sabroud's agar plate and cultured at 37°C for 48 hours. Then, the number of colonies was counted, the number of cells per one gram of the kidney was calculated, and the difference between the calculated numbers in the medicated group and in the non-medicated group was expressed by a logarithmic value.

[2] = Candida albicans, KB8, po, dose 20 mg/kg per os, read-out: Medicated/Non-medicated (logarithmic value)

Row | Compound | MIC [1] [µg/mL] | MIC (Candida albicans Ohta) [µg/mL] | MIC (Trichophyton rubrum) [µg/mL] | log reduction at 20 mg/kg (Candida albicans KB-8; [2]) | Medicated group, number of cells in kidney (Candida albicans KB-8; dose 20 mg/kg per os) | log reduction at 100 mg/kg (Candida albicans KB-8; Candida albicans, KB8, po, 24 h, read-out: Medicated/Non-medicated (logarithmic value)) | Medicated group, number of cells in kidney (Candida albicans KB-8; dose 100 mg/kg per os)
1 | OC(CSc1ccccc1)(Cn1ccnc1)c1ccc(Cl)cc1Cl (stereo not drawn) | 0.15 (≈ 0.395 µM) | 5 (≈ 13.2 µM) | 10 (≈ 26.4 µM) |  |  |  | 
2 | Cc1cccc(SCC(O)(Cn2ccnc2)c2ccc(Cl)cc2Cl)c1 (stereo not drawn) | 0.15 (≈ 0.381 µM) | 0.6 (≈ 1.53 µM) | 5 (≈ 12.7 µM) |  |  |  | 
3 | COc1ccc(SCC(O)(Cn2ccnc2)c2ccc(Cl)cc2Cl)cc1 (stereo not drawn) | 0.3 (≈ 0.733 µM) | 5 (≈ 12.2 µM) | 20 (≈ 48.9 µM) |  |  |  | 
4 | OC(CSc1ccc(F)cc1)(Cn1ccnc1)c1ccc(Cl)cc1Cl (stereo not drawn) | 0.3 (≈ 0.755 µM) | 2.5 (≈ 6.29 µM) | 40 (≈ 101 µM) |  |  |  | 
5 | OC(CSCc1ccccc1)(Cn1ccnc1)c1ccc(Cl)cc1Cl (stereo not drawn) | 0.075 (≈ 0.191 µM) | 2.5 (≈ 6.36 µM) | 5 (≈ 12.7 µM) |  |  |  | 
6 | OC(CSc1ccncc1)(Cn1ccnc1)c1ccc(Cl)cc1Cl (stereo not drawn) | 10 (≈ 26.3 µM) | 40 to 100 (≈ 105 to 263 µM) | 20 (≈ 52.6 µM) |  |  |  | 
7 | CC(C)SCC(O)(Cn1ccnc1)c1ccc(Cl)cc1Cl (stereo not drawn) | 0.6 (≈ 1.74 µM) | 40 (≈ 116 µM) | 5 (≈ 14.5 µM) |  |  |  | 
8 | CC(C)CCOCC(O)(Cn1ccnc1)c1ccc(Cl)cc1Cl (stereo not drawn) | 0.6 (≈ 1.68 µM) | 40 (≈ 112 µM) | 5 (≈ 14 µM) |  |  |  | 
9 | OC(COCc1ccccc1)(Cn1ccnc1)c1ccc(Cl)cc1Cl (stereo not drawn) | 10 (≈ 26.5 µM) | 40 (≈ 106 µM) | 0.6 (≈ 1.59 µM) |  |  |  | 
10 | OC(COCCc1ccccc1)(Cn1ccnc1)c1ccc(Cl)cc1Cl (stereo not drawn) | 0.6 (≈ 1.53 µM) | 40 (≈ 102 µM) | 2.5 (≈ 6.39 µM) |  |  |  | 
11 | OC(COCCSc1ccccc1)(Cn1ccnc1)c1ccc(Cl)cc1Cl (stereo not drawn) | 1.25 (≈ 2.95 µM) | 20 (≈ 47.2 µM) | 5 (≈ 11.8 µM) |  |  |  | 
12 | OC(COc1ccccc1Cl)(Cn1ccnc1)c1ccc(Cl)cc1Cl (stereo not drawn) | 1.25 (≈ 3.14 µM) | 20 (≈ 50.3 µM) | 5 (≈ 12.6 µM) |  |  |  | 
13 | OC(CNC1CCCCC1)(Cn1ccnc1)c1ccc(Cl)cc1Cl (stereo not drawn) |  |  |  | 1.27 | 8.91x10^3 cell/g |  | 
14 | C=CCOCC(O)(Cn1ccnc1)c1ccc(Cl)cc1Cl (stereo not drawn) [CH2=CH-CH2-O-] | 1.25 (≈ 3.82 µM) | 40 to 100 (≈ 122 to 306 µM) | 10 (≈ 30.6 µM) |  |  |  | 
15 | CCCCOCC(O)(Cn1ccnc1)c1ccc(Cl)cc1Cl (stereo not drawn) [CH3-(CH2)3-O-, 3-n-butyloxy-2-(2,4-dichlorophenyl)-l-(imidazol-l-yl)-2-propanol] | 5 (≈ 14.6 µM) | 40 (≈ 117 µM) | 0.6 (≈ 1.75 µM) |  |  |  | 
16 | CCCCSCC(O)(Cn1ccnc1)c1ccc(Cl)cc1Cl (stereo not drawn) [CH3-(CH2)3-S-] | 0.075 (≈ 0.209 µM) | 1.25 (≈ 3.48 µM) | 0.6 (≈ 1.67 µM) |  |  |  | 
17 | CCCCCSCC(O)(Cn1ccnc1)c1ccc(Cl)cc1Cl (stereo not drawn) [CH3-(CH2)4-S-] | 1.25 (≈ 3.35 µM) | 5 (≈ 13.4 µM) | 1.25 (≈ 3.35 µM) |  |  |  | 
18 | CCCCCCNCC(O)(Cn1ccnc1)c1ccc(Cl)cc1Cl (stereo not drawn) [CH3-(CH2)5-NH-] |  |  |  | 1.52 | 1.75x10^3 cell/g |  | 
19 | CCCCCCSCC(O)(Cn1ccnc1)c1ccc(Cl)cc1Cl (stereo not drawn) [CH3-(CH2)5-S-] | 0.3 (≈ 0.774 µM) | 2.5 (≈ 6.45 µM) | 0.6 (≈ 1.55 µM) |  |  |  | 

Row | Compound | MIC [1] [µg/mL] | MIC (Candida albicans Ohta) [µg/mL] | MIC (Trichophyton rubrum) [µg/mL] | log reduction at 20 mg/kg (Candida albicans KB-8; [2]) | Medicated group, number of cells in kidney (Candida albicans KB-8; dose 20 mg/kg per os) | log reduction at 100 mg/kg (Candida albicans KB-8; Candida albicans, KB8, po, 24 h, read-out: Medicated/Non-medicated (logarithmic value)) | Medicated group, number of cells in kidney (Candida albicans KB-8; dose 100 mg/kg per os)
20 | CCCCCCCCSCC(O)(Cn1ccnc1)c1ccc(Cl)cc1Cl (stereo not drawn) [CH3-(CH2)7-S-] | 0.15 (≈ 0.361 µM) | 1.25 (≈ 3.01 µM) | 0.3 (≈ 0.722 µM) |  |  |  | 
21 | Clc1ccc(COC(Cn2ccnc2)c2ccc(Cl)cc2Cl)c(Cl)c1 (stereo not drawn) [Miconazole, 1-[2,4-Dichloro-β-(2,4-dichlorobenzyloxy)phenylethyl]imidazole, reference compound] |  |  |  |  |  | 0.8 | 2.96x10^4 cell/g
22 | OC(CNCc1ccccc1)(Cn1ccnc1)c1ccc(Cl)cc1Cl (stereo not drawn) [the 5th table, row 0] | 40 to 100 (≈ 106 to 266 µM) | 40 to 100 (≈ 106 to 266 µM) |  |  |  |  | 
23 | OCCNCC(O)(Cn1ccnc1)c1ccc(Cl)cc1Cl (stereo not drawn) [the 5th table, row 1] | 40 to 100 (≈ 121 to 303 µM) | 40 to 100 (≈ 121 to 303 µM) | 40 to 100 (≈ 121 to 303 µM) |  |  |  | 
24 | OC(CNCCN1CCOCC1)(Cn1ccnc1)c1ccc(Cl)cc1Cl (stereo not drawn) [the 5th table, row 2] | 40 to 100 (≈ 100 to 250 µM) | 40 to 100 (≈ 100 to 250 µM) | 40 to 100 (≈ 100 to 250 µM) |  |  |  | 
25 | OC(CNCc1ccco1)(Cn1ccnc1)c1ccc(Cl)cc1Cl (stereo not drawn) [the 5th table, row 3] | 40 to 100 (≈ 109 to 273 µM) | 40 to 100 (≈ 109 to 273 µM) | 40 to 100 (≈ 109 to 273 µM) |  |  |  | 
26 | OC(CNCC1CCCO1)(Cn1ccnc1)c1ccc(Cl)cc1Cl (stereo not drawn) [the 5th table, row 4] | 40 to 100 (≈ 108 to 270 µM) | 40 to 100 (≈ 108 to 270 µM) | 40 to 100 (≈ 108 to 270 µM) |  |  |  | 
27 | CN1CCN(CC(O)(Cn2ccnc2)c2ccc(Cl)cc2Cl)CC1 (stereo not drawn) [the 5th table, row 5] | 2.5 (≈ 6.77 µM) | 40 (≈ 108 µM) | 40 to 100 (≈ 108 to 271 µM) |  |  |  | 
28 | OC(CN1CCN(c2ccccc2)CC1)(Cn1ccnc1)c1ccc(Cl)cc1Cl (stereo not drawn) [the 5th table, row 6] | 5 (≈ 11.6 µM) | 20 (≈ 46.4 µM) | 0.6 (≈ 1.39 µM) |  |  |  | 
29 | OC(CN1CCN(Cc2ccccc2)CC1)(Cn1ccnc1)c1ccc(Cl)cc1Cl (stereo not drawn) [the 5th table, row 7] | 40 to 100 (≈ 89.8 to 225 µM) | 40 to 100 (≈ 89.8 to 225 µM) | 20 (≈ 44.9 µM) |  |  |  | 
30 | OC(CNCc1ccccc1)(Cn1ccnc1)c1ccc(Cl)cc1Cl (stereo not drawn) [the 6th table, row 5] |  |  |  | 1.6 | 4.17x10^3 cell/g |  | 
31 | OCCNCC(O)(Cn1ccnc1)c1ccc(Cl)cc1Cl (stereo not drawn) [the 6th table, row 6] |  |  |  | 1.58 | 1.91x10^3 cell/g |  | 
32 | OC(CNCCN1CCOCC1)(Cn1ccnc1)c1ccc(Cl)cc1Cl (stereo not drawn) [the 6th table, row 7] |  |  |  | 1.23 | 9.78x10^3 cell/g |  | 
33 | OC(CNCc1ccco1)(Cn1ccnc1)c1ccc(Cl)cc1Cl (stereo not drawn) [the 7th table, row 3] |  |  |  | 1.05 | 5.13x10^3 cell/g |  | 
34 | OC(CNCC1CCCO1)(Cn1ccnc1)c1ccc(Cl)cc1Cl (stereo not drawn) [the 7th table, row 4] |  |  |  | 1.01 | 5.62x10^3 cell/g |  | 
35 | CN1CCN(CC(O)(Cn2ccnc2)c2ccc(Cl)cc2Cl)CC1 (stereo not drawn) [the 7th table, row 5] |  |  |  | 1.59 | 8.32x10^3 cell/g |  | 
36 | OC(CN1CCN(c2ccccc2)CC1)(Cn1ccnc1)c1ccc(Cl)cc1Cl (stereo not drawn) [the 7th table, row 6] |  |  |  | 1.58 | 1.52x10^3 cell/g |  | 
37 | OC(CN1CCN(Cc2ccccc2)CC1)(Cn1ccnc1)c1ccc(Cl)cc1Cl (stereo not drawn) [the 7th table, row 7] |  |  |  | 1.15 | 4.09x10^3 cell/g |  | 
